System: patients after acute myocardial infarction
Test: Life quality, Seattle Angina Questionnaire (SAQ), same clinical trial
Assay type: in vivo, human
Settings: PP
Excerpt: 3508 patients who were in accordance with the diagnostic standards of AMI for 28 days to 2 years and differentiated as Qi deficiency and blood stagnation syndrome by TCM were studied. 0.5 g Chinese medicine composition prepared by the method of EXAMPLE 1 (Coded as QSYQ) was administrated half an hour after meal, 3 times per day.
There were 19 questions in the Seattle angina questionnaire (SAQ), including 5 parts: physical limitation (PL), anginal stability (AS), anginal frequency (AF), treatment satisfaction (TS) and disease perception (DP). After being given necessary explanation by doctors, the questions were answered independently by patients.
They included the overall survival time, angina pectoris score, TCM symptom score and life quality score, where angina pectoris score, TCM symptom score and life quality score were evaluated at randomization, in 1st, 3rd, 6th, 9th, 12th month after treatment and 18th month after follow-up.
All evaluation results of SAQ were described during the period of observation, and Wilcoxon rank sum test was used for inter-group comparison.
The evaluation results in the SAQ were depicted in different observations, and inter-group comparison was tested by Wilcoxon Rank-sum test.

`CC(=O)Oc1ccccc1C(=O)O` [Control group, aspirine] was tested, and the “SAQ 7th question, Highly satisfied: % of patients” value (Baseline) was “(20.32%)”, the “SAQ 7th question, Highly satisfied: number of patients” value (Baseline) was 304 and the “SAQ 7th question, Mostly dissatisfied: % of patients” value (Baseline) was “(4.88%)”. For the same molecule, the “SAQ 7th question, Mostly dissatisfied: number of patients” value (Baseline) was 73, the “SAQ 7th question, Mostly satisfied: % of patients” value (Baseline) was “(46.52%)” and the “SAQ 7th question, Mostly satisfied: number of patients” value (Baseline) was 696. For the same molecule, the “SAQ 7th question, Partly satisfied: % of patients” value (Baseline) was “(27.94%)”, the “SAQ 7th question, Partly satisfied: number of patients” value (Baseline) was 418 and the “SAQ Question 1-1 Mildly limited, number of patients” value (Baseline) was 30. For the same molecule, the “SAQ Question 1-1 Mildly limited, percent of patients” value (Baseline) was “(2.01%)”, the “SAQ Question 1-1 Moderately limited, number of patients” value (Baseline) was 13 and the “SAQ Question 1-1 Moderately limited, percent of patients” value (Baseline) was “(0.87%)”. The “SAQ Question 1-1 Not limited, number of patients” value (Baseline) was 1359, the “SAQ Question 1-1 Not limited, percent of patients” value (Baseline) was “(90.96%)” and the “SAQ Question 1-1 Other reasons, number of patients” value (Baseline) was 4. The “SAQ Question 1-1 Other reasons, percent of patients” value (Baseline) was “(0.27%)”, the “SAQ Question 1-1 Severely limited, number of patients” value (Baseline) was 1 and the “SAQ Question 1-1 Severely limited, percent of patients” value (Baseline) was “(0.07%)”. The “SAQ Question 1-1 Slightly limited, number of patients” value (Baseline) was 87, the “SAQ Question 1-1 Slightly limited, percent of patients” value (Baseline) was “(5.82%)” and the “SAQ Question 1-2 Mildly limited, number of patients” value (Baseline) was 42. The “SAQ Question 1-2 Mildly limited, percent of patients” value (Baseline) was “(2.81%)”, the “SAQ Question 1-2 Moderately limited, number of patients” value (Baseline) was 13 and the “SAQ Question 1-2 Moderately limited, percent of patients” value (Baseline) was “(0.87%)”. The “SAQ Question 1-2 Not limited, number of patients” value (Baseline) was 1319, the “SAQ Question 1-2 Not limited, percent of patients” value (Baseline) was “(88.29%)” and the “SAQ Question 1-2 Other reasons, number of patients” value (Baseline) was 5. The “SAQ Question 1-2 Other reasons, percent of patients” value (Baseline) was “(0.33%)”, the “SAQ Question 1-2 Severely limited, number of patients” value (Baseline) was 2 and the “SAQ Question 1-2 Severely limited, percent of patients” value (Baseline) was “(0.13%)”. The “SAQ Question 1-2 Slightly limited, percent of patients” value (Baseline) was “(7.56%)”, the “SAQ Question 1-6: Mildly limited, patients (%)” value (Baseline) was “(20.58%)” and the “SAQ Question 1-6: Moderately limited, patients (%)” value (Baseline) was “(18.43%)”. The “SAQ Question 1-6: Not limited, patients (%)” value (Baseline) was “(25.02%)”, the “SAQ Question 1-6: Other reasons, patients (%)” value (Baseline) was “(1.01%)” and the “SAQ Question 1-6: Severely limited, patients (%)” value (Baseline) was “(6.99%)”. For the same molecule, the “SAQ Question 1-6: Slightly limited, patients (%)” value (Baseline) was “(27.98%)”, the “SAQ Question 1-7: Mildly limited, patients (%)” value (Baseline) was “(25.03%)” and the “SAQ Question 1-7: Moderately limited, patients (%)” value (Baseline) was “(19.44%)”. For the same molecule, the “SAQ Question 1-7: Not limited, patients (%)” value (Baseline) was “(9.62%)”, the “SAQ Question 1-7: Other reasons, patients (%)” value (Baseline) was “(3.14%)” and the “SAQ Question 1-7: Severely limited, patients (%)” value (Baseline) was “(21.49%)”. For the same molecule, the “SAQ Question 1-7: Slightly limited, patients (%)” value (Baseline) was “(21.28%)”, the “SAQ Question 1-8: Mildly limited, patients (%)” value (Baseline) was “(24.40%)” and the “SAQ Question 1-8: Moderately limited, patients (%)” value (Baseline) was “(22.43%)”. The “SAQ Question 1-8: Not limited, patients (%)” value (Baseline) was “(7.43%)”, the “SAQ Question 1-8: Other reasons, patients (%)” value (Baseline) was “(2.52%)” and the “SAQ Question 1-8: Severely limited, patients (%)” value (Baseline) was “(26.45%)”. The “SAQ Question 1-8: Slightly limited, patients (%)” value (Baseline) was “(16.77%)”, the “8th question: Dissatisfied, patients (%)” value (Follow-up) was “(0.07%)” and the “8th question: Highly satisfied, patients (%)” value (Follow-up) was “(28.16%)”. For the same molecule, the “8th question: Mostly dissatisfied, patients (%)” value (Follow-up) was “(0.64%)”, the “8th question: Mostly satisfied, patients (%)” value (Follow-up) was “(60.27%)” and the “8th question: Partly satisfied, patients (%)” value (Follow-up) was “(10.87%)”. For the same molecule, the “9th question: Few, patients (%)” value (Follow-up) was “(44.23%)”, the “9th question: Mild, patients (%)” value (Follow-up) was “(27.32%)” and the “9th question: Moderate, patients (%)” value (Follow-up) was “(3.87%)”. The “9th question: Severe, patients (%)” value (Follow-up) was “(0.14%)”, the “9th question: Uneffective, patients (%)” value (Follow-up) was “(24.44%)” and the “10th question: Dissatisfied, patients (%)” value (Follow-up) was “(18.11%)”. For the same molecule, the “10th question: Highly satisfied, patients (%)” value (Follow-up) was “(9.51%)”, the “10th question: Mostly dissatisfied, patients (%)” value (Follow-up) was “(19.38%)” and the “10th question: Mostly satisfied, patients (%)” value (Follow-up) was “(32.21%)”. The “10th question: Partly satisfied, patients (%)” value (Follow-up) was “(20.79%)”, the “11th question: Continuously worried, patients (%)” value (Follow-up) was “(1.34%)” and the “11th question: No worried, patients (%)” value (Follow-up) was “(8.74%)”. The “11th question: Occasionally worried, patients (%)” value (Follow-up) was “(38.83%)”, the “11th question: Often worried, patients (%)” value (Follow-up) was “(6.84%)” and the “11th question: Seldom worried, patients (%)” value (Follow-up) was “(44.26%)”. For the same molecule, the “SAQ 4th question, 1-2 times per week: % of patients” value (Follow-up) was “(13.17%)”, the “SAQ 4th question, 1-2 times per week: number of patients” value (Follow-up) was 186 and the “SAQ 4th question, 1-3 times per week: % of patients” value (Follow-up) was “(2.83%)”. The “SAQ 4th question, 1-3 times per week: number of patients” value (Follow-up) was 40, the “SAQ 4th question, <1 time per week: % of patients” value (Follow-up) was “(16.08%)” and the “SAQ 4th question, <1 time per week: number of patients” value (Follow-up) was 227. For the same molecule, the “SAQ 4th question, Not used: % of patients” value (Follow-up) was “(66.08%)” and the “SAQ 4th question, Not used: number of patients” value (Follow-up) was 933.

Reference: patent US9211310B2, “Use of a Chinese medicine composition in preparing medicaments for treating secondary prevention of myocardial infarction” (TASLY PHARMACEUTICAL GROUP CO., LTD, priority 2010, dated 2015)
